DC50 and Dmax data for 23 compounds are collected here from patent US20250340552A1, “COMPOUNDS, COMPOSITIONS AND METHODS OF TREATING DISORDERS” (HOTSPOT THERAPEUTICS, INC., priority 2022, published 2025).

A value given as a limit tells only on which side of the number the result lay.

This assay addresses T1, Cbl-B (Homo sapiens, UniProt Q13191).
T1 construct: MSD-Based Assay for Degradation of Cbl-B in THP-1 Cells; endogenous in cells; host or cells: THP-1 (title) / Jurkat (protocol text)
The assay is described as follows: MSD-based assay for degradation of Cbl-B in THP-1 cells. The class given is cell-based. Conditions: Cbl-B degradation, Jurkat cells seeded (heading: THP-1 cells), 24 hours incubation, MSD readout; for Dmax: read-out: Dmax. The method in brief:
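THP-1 cells were treated with compound for 24 h at 37 °C. Cbl-B in lysates was quantified by MSD sandwich immunoassay, with anti-Cbl-B capture antibody at 1 ug/mL and SULFO-TAG anti-rabbit detection. Maximal degradation (Dmax) was binned as A >70%, B 50–70%, C 30–50%, D <30%.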

T1 sequence (Q13191 whole entry): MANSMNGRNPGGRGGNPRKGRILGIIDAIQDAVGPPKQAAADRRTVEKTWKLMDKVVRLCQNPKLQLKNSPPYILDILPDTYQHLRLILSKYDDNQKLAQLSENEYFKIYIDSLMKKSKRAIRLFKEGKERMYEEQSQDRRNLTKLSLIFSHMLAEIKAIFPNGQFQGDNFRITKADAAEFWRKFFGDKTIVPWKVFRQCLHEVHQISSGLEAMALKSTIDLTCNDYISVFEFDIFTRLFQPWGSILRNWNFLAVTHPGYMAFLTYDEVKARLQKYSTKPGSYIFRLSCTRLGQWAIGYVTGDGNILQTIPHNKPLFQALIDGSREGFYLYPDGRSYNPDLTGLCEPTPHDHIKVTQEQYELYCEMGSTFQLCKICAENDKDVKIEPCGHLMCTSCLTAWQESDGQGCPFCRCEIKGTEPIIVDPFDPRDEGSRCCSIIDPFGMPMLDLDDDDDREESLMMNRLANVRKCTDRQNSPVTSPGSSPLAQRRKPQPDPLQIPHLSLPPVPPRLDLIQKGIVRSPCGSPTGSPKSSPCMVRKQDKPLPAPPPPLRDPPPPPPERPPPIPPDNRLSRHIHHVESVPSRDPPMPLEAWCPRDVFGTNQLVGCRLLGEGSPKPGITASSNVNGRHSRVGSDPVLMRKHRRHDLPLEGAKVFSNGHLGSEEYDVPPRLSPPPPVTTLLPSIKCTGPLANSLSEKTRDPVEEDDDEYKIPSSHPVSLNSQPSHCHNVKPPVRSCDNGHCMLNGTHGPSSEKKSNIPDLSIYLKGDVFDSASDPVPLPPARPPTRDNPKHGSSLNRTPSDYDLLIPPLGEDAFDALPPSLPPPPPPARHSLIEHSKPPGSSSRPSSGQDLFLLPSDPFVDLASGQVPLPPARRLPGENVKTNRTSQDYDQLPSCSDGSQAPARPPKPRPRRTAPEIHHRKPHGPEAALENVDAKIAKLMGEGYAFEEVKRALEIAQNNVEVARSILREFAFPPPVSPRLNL

In the case of `CN(CCOC1CCN(Cc2cc(C(F)(F)F)c3cn(-c4cccc([C@H](c5nncn5C)C5CCC5)c4)c(=O)n3c2)CC1)C(=O)c1ccc(N2CCC(c3ccc4c(c3)CN([C@@H]3CCC(=O)NC3=O)C4=O)CC2)cc1` [Compound 151], the DC50 lay in the range of 30 to 300 nM and the Dmax is 50 to 70%.
On to `Cn1cnnc1CC1(c2cccc(-n3cc4c(C(F)(F)F)cc(CN5CCC(OCc6ccc(N7CCN(c8ccc9c(c8)CN([C@@H]8CCC(=O)NC8=O)C9=O)CC7)cc6)CC5)cn4c3=O)c2)COC1` (single isomer, unassigned) [Compound 249], for which the DC50 fell in the range of 30 to 300 nM and the maximal degradation (Dmax) was in the range of 30 to 50%.
In the case of `Cn1cnnc1[C@@H](c1cccc(-n2cc3c(C(F)(F)F)cc(CN4CCC(OCc5ccc(C(=O)N6CCN(c7ccc8c(c7)CN([C@@H]7CCC(=O)NC7=O)C8=O)CC6)cc5)CC4)cn3c2=O)c1)C1CCC1` (single isomer, unassigned) [Compound 157], the DC50 was over 10000 nM and the Dmax is under 30%.
For the compound `Cn1cnnc1CC1(c2cccc(-n3cc4c(C(F)(F)F)cc(CN5CCC(OCc6ccc(N7CCN(c8ccc9c(c8)CN([C@H]8CCC(=O)NC8=O)C9=O)CC7)cc6)CC5)cn4c3=O)c2)COC1` (single isomer, unassigned) [Compound 250], the DC50 is under 30 nM and the Dmax was in the range of 50 to 70%.
The matching figures for `Cn1cnnc1[C@@H](c1cccc(-n2cc3c(C(F)(F)F)cc(CN4CCC(OCc5cccc(C(=O)N6CCN(c7ccc8c(c7)CN([C@H]7CCC(=O)NC7=O)C8=O)CC6)c5)CC4)cn3c2=O)c1)C1CCC1` (single isomer, unassigned) [Compound 154]: 300 to 1000 nM and 30 to 50%.
`CN(CCN(C)C(=O)c1ccc(N2CCN(c3ccc4c(c3)CN([C@H]3CCC(=O)NC3=O)C4=O)CC2)cc1)Cc1cc(C(F)(F)F)c2cn(-c3cccc([C@H](c4nncn4C)C4CCC4)c3)c(=O)n2c1` (single isomer, unassigned) [Compound 140] showed a DC50 of 30 to 300 nM.
Turning to `Cn1cnnc1CC1(c2cccc(-n3cc4c(C(F)(F)F)cc(CN5CC[C@@H](OCCOCc6ccc(COCCNc7cccc8c7C(=O)N(C7CCC(=O)NC7=O)C8=O)cc6)C5)cn4c3=O)c2)COC1` (stereo partly shown) [Compound 45], the DC50 lay in the range of 300 to 1000 nM and the Dmax fell in the range of 50 to 70%.
The matching figures for `Cn1cnnc1CC1(c2cccc(-n3cc4c(C(F)(F)F)cc(CN5CCC(OCc6ccc(CN7CCN(c8ccc9c(c8)CN([C@H]8CCC(=O)NC8=O)C9=O)CC7)cc6)CC5)cn4c3=O)c2)COC1` (single isomer, unassigned) [Compound 94]: under 30 nM and over 70%.
Regarding `Cn1cnnc1[C@@H](c1cccc(-n2cc3c(C(F)(F)F)cc(CN4CCN(C(=O)CN5CCC(CN6CCN(c7ccc8c(c7)CN([C@@H]7CCC(=O)NC7=O)C8=O)CC6)CC5)CC4)cn3c2=O)c1)C1CCC1` [Compound 129], the DC50 is over 10000 nM and the Dmax was under 30%.
`Cn1cnnc1[C@@H](c1cccc(-n2cc3c(C(F)(F)F)cc(CN4CCC(N5CCC(CN6CCN(c7ccc8c(c7)CN([C@H]7CCC(=O)NC7=O)C8=O)CC6)CC5)CC4)cn3c2=O)c1)C1CCC1` [Compound 136] displayed a half-maximal degradation concentration (DC50) of 30 to 300 nM.
As to `Cn1cnnc1CC1(c2cccc(-n3cc4c(C(F)(F)F)cc(CN5CCN(CC(=O)N6CCC(CN7CCN(c8ccc9c(c8)CN([C@@H]8CCC(=O)NC8=O)C9=O)CC7)CC6)CC5)cn4c3=O)c2)COC1` (single isomer, unassigned) [Compound 133], the DC50 was 30 to 300 nM and the Dmax was over 70%.
In turn, `CN(CCO[C@@H]1CCCN(Cc2cc(C(F)(F)F)c3cn(-c4cccc([C@H](c5nncn5C)C5CCC5)c4)c(=O)n3c2)C1)C(=O)c1ccc(N2CCN(c3ccc4c(c3)CN([C@@H]3CCC(=O)NC3=O)C4=O)CC2)cc1` (single isomer, unassigned) [Compound 103] gave a DC50 of 300 to 1000 nM.
`Cn1cnnc1CC1(c2cccc(-n3cc4c(C(F)(F)F)cc(CN5CCC(OCCN6CCC(CN7CCCN(c8ccc9c(c8)CN(C8CCC(=O)NC8=O)C9=O)CC7)CC6)CC5)cn4c3=O)c2)COC1` (stereo not shown) [Compound 25]: the DC50 fell in the range of 300 to 1000 nM and the Dmax fell in the range of 30 to 50%.
Regarding `Cn1cnnc1[C@@H](c1cccc(-n2cc3c(C(F)(F)F)cc(-c4nccn4CCOCCN4CCC(CN5CCN(c6ccc7c(c6)CN([C@H]6CCC(=O)NC6=O)C7=O)CC5)CC4)cn3c2=O)c1)C1CCC1` (single isomer, unassigned) [Compound 98], the 50% degradation concentration (DC50) is over 10000 nM and the Dmax was under 30%.
The matching figures for `Cn1cnnc1CC1(c2cccc(-n3cc4c(C(F)(F)F)cc(CNCCOCCOCCNc5cccc6c5C(=O)N(C5CCC(=O)NC5=O)C6=O)cn4c3=O)c2)COC1` (stereo not shown) [Compound 1]: over 10000 nM and under 30%.
Take `Cn1cnnc1[C@@H](c1cccc(-n2cc3c(C(F)(F)F)cc(CN4CCC(CC(=O)N5CCC(CN6CCN(c7ccc8c(c7)CN([C@H]7CCC(=O)NC7=O)C8=O)CC6)CC5)CC4)cn3c2=O)c1)C1CCC1` (single isomer, unassigned) [Compound 112]: the DC50 was under 30 nM and the greatest degradation seen (Dmax) is over 70%.
Consider `Cn1cnnc1[C@@H](c1cccc(-n2cc3c(C(F)(F)F)cc(CN4CCC(OCCOCc5ccc(CN6CCN(c7cccc8c7C(=O)N(C7CCC(=O)NC7=O)C8=O)CC6)cc5)CC4)cn3c2=O)c1)C1CCC1` (stereo partly shown) [Compound 24], for which the DC50 was over 10000 nM and the Dmax was under 30%.
`CO[C@H]1C[C@](c2cccc(-n3cc4c(C(F)(F)F)cc(CN5CCC(CN(C)C(=O)c6ccc(N7CCN(c8ccc9c(c8)CN([C@@H]8CCC(=O)NC8=O)C9=O)CC7)cc6)CC5)cn4c3=O)c2)(c2nncn2C)C1` [Compound 168]: the DC50 is over 10000 nM and the Dmax was under 30%.
On the same counts, the results for `Cn1cnnc1CC1(c2cccc(-n3cc4c(C(F)(F)F)cc(CN5CCN(CCN6CCC(CN7CCN(c8ccc9c(c8)CN([C@H]8CCC(=O)NC8=O)C9=O)CC7)CC6)CC5)cn4c3=O)c2)COC1` [Compound 62] are 30 to 300 nM and over 70%.
On to `Cn1cnnc1[C@@H](c1cccc(N2Cc3c(cc(CN4CCC[C@H](OCc5ccc(CC6CCN(c7ccc8c(c7)CN([C@H]7CCC(=O)NC7=O)C8=O)CC6)cc5)C4)cc3C(F)(F)F)C2=O)c1)C1CCC1` [Compound 190], for which the DC50 is 300 to 1000 nM and the Dmax is 30 to 50%.
The matching figures for `CN(CCCN1CCN(Cc2cc(C(F)(F)F)c3cn(-c4cccc([C@H](c5nncn5C)C5CCC5)c4)c(=O)n3c2)CC1)C(=O)c1ccc(N2CCN(c3ccc4c(c3)CN([C@H]3CCC(=O)NC3=O)C4=O)CC2)cc1` (single isomer, unassigned) [Compound 124]: under 30 nM and over 70%.
In the case of `Cn1cnnc1[C@@H](c1cccc(-n2cc3c(C(F)(F)F)cc(CN4CCC(C(=O)N5CCC(CN6CCN(c7cc8c(cc7F)C(=O)N(C7CCC(=O)NC7=O)C8=O)CC6)CC5)CC4)cn3c2=O)c1)C1CCC1` (stereo partly shown) [Compound 30], the DC50 was over 10000 nM and the Dmax was under 30%.
As for `Cn1cnnc1[C@@H](c1cccc(-n2cc3c(C(F)(F)F)cc(CN4CC[C@H](OCCOCc5ccc(COCCNc6cccc7c6C(=O)N(C6CCC(=O)NC6=O)C7=O)cc5)C4)cn3c2=O)c1)C1CCC1` (stereo partly shown) [Compound 60], the DC50 is 300 to 1000 nM and the maximal degradation (Dmax) lay within 30 to 50%.
